Test results: paper PMC8376931, “Structure activity relationships and the binding mode of quinolinone-pyrimidine hybrids as reversal agents of multidrug resistance mediated by P-gp” (Scientific Reports, 2021)
Where two headings read alike, the source gives them in different places.

Legend:
K562 cells [1] = assay: Doxorubicin intracellular accumulation assay (flow cytometry) in K562; format: cell-based; design: key: MFI with inhibitor / MFI of Dox alone; settings: 5 μM Dox
Protocol: (§1) The intracellular accumulation of the fluorescent probes, Dox and Rho123, was determined by monitoring its fluorescence intensity using flow cytometry (96-well plate format), as previously reported. The inhibition on the outward transport of these P-gp substrates results in an increased […] fluorescence intensity (MFI). […] Those compounds showing inhibition on P-gp at the maximum tested concentration were further evaluated at serial dilutions to determinate their MECs. […] The plates were then incubated in a 5% CO2 incubator for 1 h at 37 °C. Afterwards, 5 μM Dox was added to each well. The other fluorescent specific substrate of P-gp, Rho123, however, was added at 500 ng/mL to additionally measure the ability of the most promising compounds to block its efflux. Subsequently, cells from both assays were washed twice with cold PBS, and 15,000 events from each sample were analyzed to determine the cell-associated fluorescence. Dead cells were eliminated by means of forward- and side-scatter parameters. […] The blocking of the P-gp transport function was evaluated by the parameter FIR, calculated as the ratio of the MFI of Dox or Rho123 with the addition of the likely inhibitor to the MFI of Dox or Rho123 alone.

[2] = MTT cytotoxicity assay in Lucena 1; format: cell-based; settings: human, Lucena 1 cells, read-out: IC50 (cytotoxicity) against Lucena 1
Protocol: (§2) Then 0.5 mg/mL MTT in PBS was added. After additional incubation for 4 h, the formazan crystals obtained were dissolved in DMSO and the absorbance at 595 nm was read on an iMark micro-plate reader (Bio-Rad, USA). IC50 values for cytotoxicity were then calculated as reported[50] using nonlinear regression by GraphPad Prism 7 (Graphpad Software, Inc., San Diego, CA, USA, www.graphpad.com).
(§3) The cells were incubated at 37 °C at 5% CO2 for 48 h and the same protocol described above was followed. IC50 values of Dox were then obtained.

[3] = MTT cytotoxicity assay in K562; format: cell-based; settings: human, K562 cells, read-out: IC50 (cytotoxicity) against K562
Protocol: as §2, §3

P-gp [4] = biological target: T1, P-gp (Homo sapiens, UniProt P08183); settings: 1 h
T1 sequence (P08183 whole entry): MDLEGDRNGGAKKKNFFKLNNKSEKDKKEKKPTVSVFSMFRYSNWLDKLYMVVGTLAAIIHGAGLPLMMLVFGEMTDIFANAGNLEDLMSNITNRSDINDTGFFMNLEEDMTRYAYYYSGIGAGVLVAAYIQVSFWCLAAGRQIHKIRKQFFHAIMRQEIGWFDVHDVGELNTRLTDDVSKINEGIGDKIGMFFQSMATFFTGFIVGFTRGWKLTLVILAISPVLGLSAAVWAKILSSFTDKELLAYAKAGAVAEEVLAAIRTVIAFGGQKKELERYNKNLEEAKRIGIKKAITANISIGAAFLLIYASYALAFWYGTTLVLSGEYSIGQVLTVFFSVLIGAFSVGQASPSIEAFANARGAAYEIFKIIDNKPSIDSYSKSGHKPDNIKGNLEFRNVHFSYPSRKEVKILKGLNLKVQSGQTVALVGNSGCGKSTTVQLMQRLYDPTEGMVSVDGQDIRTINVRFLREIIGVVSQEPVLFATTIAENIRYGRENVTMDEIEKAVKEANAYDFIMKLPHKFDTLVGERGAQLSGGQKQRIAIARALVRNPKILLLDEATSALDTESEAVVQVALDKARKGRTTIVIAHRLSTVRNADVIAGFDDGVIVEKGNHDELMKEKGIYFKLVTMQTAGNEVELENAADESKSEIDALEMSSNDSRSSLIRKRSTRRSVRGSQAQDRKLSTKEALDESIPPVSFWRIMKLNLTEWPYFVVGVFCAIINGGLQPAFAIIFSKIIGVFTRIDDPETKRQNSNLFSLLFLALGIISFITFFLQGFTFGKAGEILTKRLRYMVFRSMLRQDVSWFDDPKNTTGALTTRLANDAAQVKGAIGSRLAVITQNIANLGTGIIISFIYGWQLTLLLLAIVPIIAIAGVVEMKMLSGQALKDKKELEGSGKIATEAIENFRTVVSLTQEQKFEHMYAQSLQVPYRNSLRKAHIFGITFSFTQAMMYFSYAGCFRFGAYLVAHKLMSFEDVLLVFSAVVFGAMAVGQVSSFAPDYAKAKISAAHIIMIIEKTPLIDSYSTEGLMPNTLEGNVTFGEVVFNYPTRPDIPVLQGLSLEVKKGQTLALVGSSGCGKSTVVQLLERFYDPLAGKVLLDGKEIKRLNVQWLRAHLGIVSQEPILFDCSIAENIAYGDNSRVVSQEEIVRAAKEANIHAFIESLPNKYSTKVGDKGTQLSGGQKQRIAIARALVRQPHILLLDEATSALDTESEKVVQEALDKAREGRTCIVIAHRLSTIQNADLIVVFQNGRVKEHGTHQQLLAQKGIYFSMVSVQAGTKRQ
Protocol: as §1

K562 cells [5] = assay: Rhodamine 123 intracellular accumulation assay in K562; format: cell-based; settings: 20 μM
Protocol: as §1

erythrocytes = assay: Erythrocyte hemolysis assay; format: cell-based; settings: assayed at 2.5 to 20 µM
Protocol: (§4) PBMC were isolated from heparinized blood of healthy volunteers by density centrifugation using Ficoll-Hypaque separation. Ethical approval was provided by the Catholic University of Córdoba Research Ethics Board and informed consents were obtained from all donors. Briefly, 1 × 10^5 PBMC/well were incubated with the tested compounds at concentrations ranging from 2.5 to 20 µM in the presence of 10 μg/mL PHA, or with 1% DMSO as control. After 48 h incubation, MTT was added and the same protocol described above was followed to calculate the IC50 values. An erythrocyte hemolysis assay was carried out following previous procedures[8] with the compounds assayed at 2.5 to 20 µM.

Lucena 1 cells [6] = assay: MTT cytotoxicity assay in Lucena 1; format: cell-based; settings: 48 h
Protocol: as §2, §3

P-gp [7] = biological target: T1, P-gp
Protocol: The intracellular accumulation of the fluorescent probes, Dox and Rho123, was determined by monitoring its fluorescence intensity using flow cytometry (96-well plate format), as previously reported. The inhibition on the outward transport of these P-gp substrates results in an increased […] fluorescence intensity (MFI). […] The plates were then incubated in a 5% CO2 incubator for 1 h at 37 °C. Afterwards, 5 μM Dox was added to each well. The other fluorescent specific substrate of P-gp, Rho123, however, was added at 500 ng/mL to additionally measure the ability of the most promising compounds to block its efflux. Subsequently, cells from both assays were washed twice with cold PBS, and 15,000 events from each sample were analyzed to determine the cell-associated fluorescence. Dead cells were eliminated by means of forward- and side-scatter parameters. […] The blocking of the P-gp transport function was evaluated by the parameter FIR, calculated as the ratio of the MFI of Dox or Rho123 with the addition of the likely inhibitor to the MFI of Dox or Rho123 alone.

Lucena 1 cells [8] = assay: Doxorubicin resistance reversal assay; format: cell-based
Protocol: as §3

K562 cells [9] = assay: MTT cytotoxicity assay in K562; format: cell-based; settings: 48 h
Protocol: as §2, §3

PBMC = assay: Cytotoxicity on peripheral blood mononuclear cells (MTT); format: cell-based; settings: Homo sapiens, 48 h, PHA 10 μg/mL, read-out: inhibition on proliferation of PBMC
Protocol: as §4

SphK1 = settings: previously found; cited from earlier work
SphK2 = settings: previously found; cited from earlier work

Row | SMILES | FIR K562 (K562 cells [1]; compound 20 µM) | IC50 at 48 h [2] | IC50 at 48 h [3] | minimum effective concentration (MEC), Dox accumulation (P-gp [4]) | FIR Lucena 1 (P-gp [4]; 0.31 µM) | FIR Lucena 1 (P-gp [4]; 0.62 µM) | FIR Lucena 1 (P-gp [4]; 1.25 µM) | FIR Lucena 1 (P-gp [4]; 2.5 µM) | FIR Lucena 1 (P-gp [4]; 5 µM) | FIR Lucena 1 (P-gp [4]; 10 µM) | FIR Lucena 1 (P-gp [4]; 20 µM) | further results
1 | COc1cc2cc(CN3CCN(c4nccc(-c5ccc6ccccc6c5)n4)CC3)c(=O)[nH]c2cc1OC [Compound 7c] | 1.04 ± 0.03 | 10.2 ± 0.23 µM | 6.7 ± 0.2 µM | 0.62 µM | 1.08 ± 0.05 | 1.22 ± 0.07 | 1.24 ± 0.05 | 1.23 ± 0.02 | 1.27 ± 0.04 | 1.29 ± 0.11 | 1.45 ± 0.10 | –
2 | c1ccc2cc(-c3ccnc(N4CCNCC4)n3)ccc2c1 [Compound 7] | 1.20 ± 0.06 | 17.9 ± 0.55 µM | – | – | – | – | – | 1.07 ± 0.10 | 1.19 ± 0.05 | 1.42 ± 0.02 | 2.23 ± 0.26 | FIR K562 (K562 cells [1]; compound 10 µM): 1.10 ± 0.08
3 | O=c1[nH]c2ccccc2cc1CN1CCN(c2nccc(-c3ccc(Cl)cc3)n2)CC1 [Compound 6a] | 0.92 ± 0.04 | – | – | 5 µM | – | – | – | 1.06 ± 0.04 | 1.15 ± 0.05 | 1.30 ± 0.05 | 1.40 ± 0.05 | –
4 | COc1cc2cc(CNc3ccc(Nc4nccc(-c5ccc6ccccc6c5)n4)cc3)c(=O)[nH]c2cc1OC [Compound 5c] | 0.95 ± 0.02 | – | – | 0.31 µM | 1.12 ± 0.02 | 1.29 ± 0.08 | 1.22 ± 0.03 | 1.26 ± 0.01 | 1.23 ± 0.05 | 1.24 ± 0.10 | 1.42 ± 0.09 | Rho123 accumulation in K562 (result in words) (K562 cells [5]): no increase; concentrations at which the erythrocyte membrane was not altered (erythrocytes): lower than 10 µM; IC50 (cytotoxicity) against Lucena 1 (Lucena 1 cells [6]): non-toxic; minimum effective concentration (MEC), Rho123 accumulation (P-gp [7]; human, 1 h): 0.62 µM; FIR Rho123 (P-gp [7]; human, 1 h, 0.62 µM): 1.36 ± 0.04; FIR Rho123 (fold more Rho123 than untreated cells) (P-gp [7]; human, 1 h, 20 µM): 2.72 ± 0.10; fold reversal (FR) of Dox resistance (Lucena 1 cells [8]; compound 40 nM): 1.30 ± 0.05; fold reversal (FR) of Dox resistance (Lucena 1 cells [8]; compound 1.25 µM, FR = IC50 Dox/IC50 Dox with compound, 48 h): 5.16 ± 0.60; lowest co-administered concentration significantly increasing doxorubicin toxicity (Lucena 1 cells [8]; p < 0.05): 0.04 µM; IC50 (cytotoxicity) against K562 (K562 cells [9]): non-toxic; FIR Lucena 1 (P-gp [4]; 0.16 µM): 0.99 ± 0.07; inhibition at 20 µM (PBMC): 21%
5 | CC(=O)c1ccc(Nc2nccc(-c3ccc4ccccc4c3)n2)cc1 [Compound 3] | 0.98 ± 0.07 | – | – | 10 µM | – | – | – | – | 1.06 ± 0.05 | 1.24 ± 0.02 | 1.70 ± 0.22 | –
6 | COc1cc2cc(COc3nccc(-c4ccc(Cl)cc4)n3)c(=O)[nH]c2cc1OC [Compound 11] | 1.44 ± 0.03 | 10.7 ± 0.15 µM | 3.8 ± 0.1 µM | 1.25 µM | – | 1.02 ± 0.02 | 1.14 ± 0.02 | 1.23 ± 0.04 | 1.38 ± 0.07 | 1.30 ± 0.07 | 2.87 ± 0.55 | FIR K562 (K562 cells [1]; compound 10 µM): 1.01 ± 0.02
7 | COc1cc2cc(CNc3ccc(Nc4nccc(-c5ccc(Cl)cc5)n4)cc3)c(=O)[nH]c2cc1OC [Compound 4c] | 0.93 ± 0.02 | – | – | 0.62 µM | 1.03 ± 0.01 | 1.11 ± 0.03 | 1.24 ± 0.08 | 1.31 ± 0.11 | 1.32 ± 0.09 | 1.28 ± 0.07 | 1.39 ± 0.07 | –
8 | NCCN1CCN(c2nccc(-c3ccc4ccccc4c3)n2)CC1 [Compound 10a] | 1.26 ± 0.06 | 17.1 ± 0.95 µM | 17.7 ± 0.15 µM | 1.25 µM | – | 1.04 ± 0.03 | 1.13 ± 0.03 | 1.21 ± 0.02 | 1.30 ± 0.08 | 1.63 ± 0.17 | 2.36 ± 0.25 | FIR K562 (K562 cells [1]; compound 5 µM): 0.98 ± 0.01; FIR K562 (K562 cells [1]; compound 10 µM): 1.13 ± 0.02
9 | COC(=O)c1ccccc1-c1c2ccc(=N)cc-2oc2cc(N)ccc12 [Rhodamine 123, reference compound] | – | – | – | – | – | – | – | – | – | – | – | Rho123 fluorescence intensity, fold lower in Lucena 1 with respect to K562 (P-gp [7]): 5.87 fold
10 | COc1cccc2c1C(=O)c1c(O)c3c(c(O)c1C2=O)C[C@@](O)(C(=O)CO)C[C@@H]3O[C@H]1C[C@H](N)[C@H](O)[C@H](C)O1 [doxorubicin, reference compound] | – | 23 ± 5.41 µM | 0.64 ± 0.13 µM | – | – | – | – | – | – | – | – | –
11 | COc1cc2cc(CN3CCN(c4nccc(-c5ccc(Cl)cc5)n4)CC3)c(=O)[nH]c2cc1OC [Compound 6c] | 0.79 ± 0.007 | – | – | 0.62 µM | 1.00 ± 0.01 | 1.11 ± 0.03 | 1.19 ± 0.07 | 1.32 ± 0.08 | 1.32 ± 0.09 | 1.49 ± 0.20 | 1.68 ± 0.12 | IC50 against SphK1 (SphK1): no activity; IC50 against SphK2 (SphK2): no activity
